Test results reported in ChEMBL document CHEMBL3259547, “Selective 5-HT Receptor Modulators May Deliver Focused Targeting with Fewer Adverse Effects” (ACS Med Chem Lett, 2014).

Each molecule was assayed against 5-hydroxytryptamine receptor 7 (Rattus norvegicus) (UniProt P32305) (assay: Modulation of rat 5HT7 receptor by cAMP assay).
Format: functional

Chain of 5-hydroxytryptamine receptor 7 (Rattus norvegicus) (P32305 whole entry): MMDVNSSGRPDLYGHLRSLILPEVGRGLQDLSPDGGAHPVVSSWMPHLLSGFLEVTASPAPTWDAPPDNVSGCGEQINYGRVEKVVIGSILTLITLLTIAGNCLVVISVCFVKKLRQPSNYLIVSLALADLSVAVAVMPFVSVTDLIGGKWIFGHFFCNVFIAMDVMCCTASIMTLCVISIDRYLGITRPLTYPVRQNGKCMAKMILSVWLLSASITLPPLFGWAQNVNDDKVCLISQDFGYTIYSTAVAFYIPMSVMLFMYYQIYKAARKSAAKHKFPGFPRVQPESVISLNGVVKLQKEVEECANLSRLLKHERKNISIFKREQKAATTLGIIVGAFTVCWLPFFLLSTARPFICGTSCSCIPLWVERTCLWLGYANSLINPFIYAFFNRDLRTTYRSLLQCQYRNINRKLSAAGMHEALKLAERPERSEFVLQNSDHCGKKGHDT

pKb	SMILES
7.3	FC(F)(COc1ccc(Cl)cc1OC1CNC1)c1ccccc1
6.9	Cc1nc(COc2ccc(Cl)cc2OC2CNC2)cs1
7.5	Clc1cccc(COc2ccc(Br)cc2OC2CNC2)c1
6.8	C[C@@H](Oc1ccc(C(F)(F)F)cc1OC1CNC1)c1cccc(C(F)(F)F)c1
